Measurements published in patent publication US9635859B2, “Pesticidal compositions and processes related thereto” (Dow AgroSciences LLC, priority 2012, dated 2017).

Test system: Beet Armyworm (Spodoptera exigua)
Assay: Bioassays on BAW, 128-well diet tray assay
Type: in vivo
Conditions: percent mortality, second instar larvae, 50 μg/cm^2 on artificial diet, five to seven days, 25° C.; Table 3
Method: Certain molecules disclosed in this document were tested against BAW and CEW and CL using procedures described in the following examples. In the reporting of the results, the “BAW & CEW & CL Rating Table” was used (See Table Section).
Bioassays on BAW (Spodoptera exigua)
Bioassays on BAW were conducted using a 128-well diet tray assay. one to five second instar BAW larvae were placed in each well (3 mL) of the diet tray that had been previously filled with 1 mL of artificial diet to which 50 μg/cm^2 of the test compound (dissolved in 50 μL of 90:10 acetone-water mixture) had been applied (to each of eight wells) and then allowed to dry. Trays were covered with a clear self-adhesive cover, and held at 25° C., 14:10 light-dark for five to seven days. Percent mortality was recorded for the larvae in each well; activity in the eight wells was then averaged. The results are indicated in the table entitled “Table 3: Assay Results” (See Table Section).

Compound | BAW Rating
Cc1cc(/C=C/C(c2cc(Cl)cc(Cl)c2)C(F)(F)F)ccc1C(=O)NCc1ccccc1F (centres unmarked) [AC9] | A (50-100)
Cc1cc(/C=C/C(c2cc(Cl)cc(Cl)c2)C(F)(F)F)ccc1C(=O)NC1CSC1 (centres unmarked) [AC10] | A (50-100)
Cc1cc(/C=C/C(c2cc(Cl)cc(Cl)c2)C(F)(F)F)ccc1C(=O)NCc1ccccc1 (centres unmarked) [AC11] | A (50-100)
Cc1cc(/C=C/C(c2cc(Cl)cc(Cl)c2)C(F)(F)F)ccc1C(=O)NCc1ccccn1 (centres unmarked) [AC12] | A (50-100)
Cc1cc(/C=C/C(c2cc(Cl)cc(Cl)c2)C(F)(F)F)ccc1C(=O)NC1CS(=O)(=O)C1 (centres unmarked) [AC13] | A (50-100)
Cc1cc(/C=C/C(c2cc(Cl)cc(Cl)c2)C(F)(F)F)ccc1C(=O)NCc1cnc(Cl)s1 (centres unmarked) [AC15] | A (50-100)
Cc1cc(/C=C/C(c2cc(Cl)cc(Cl)c2)C(F)(F)F)ccc1C(=O)NC(C)(C)c1ccccn1 (centres unmarked) [AC16] | A (50-100)
Cc1cc(/C=C/C(c2cc(Cl)cc(Cl)c2)C(F)(F)F)ccc1C(=O)NNc1ccccc1F (centres unmarked) [AC17] | A (50-100)
Cc1cc(/C=C/C(c2cc(Cl)cc(Cl)c2)C(F)(F)F)ccc1C(=O)NCc1ncccn1 (centres unmarked) [AC18] | A (50-100)
Cc1cc(/C=C/C(c2cc(Cl)cc(Cl)c2)C(F)(F)F)ccc1C(=O)NCc1ccoc1 (centres unmarked) [AC20] | A (50-100)
Cc1cc(/C=C/C(c2cc(Cl)c(Cl)c(Cl)c2)C(F)(F)F)ccc1C(=O)NCc1ccc(Cl)nc1 (centres unmarked) [AC22] | A (50-100)
Cc1cc(/C=C/C(c2cc(Cl)c(Cl)c(Cl)c2)C(F)(F)F)ccc1C(=O)NC1CSC1 (centres unmarked) [AC23] | A (50-100)
Cc1cc(/C=C/C(c2cc(Cl)c(Cl)c(Cl)c2)C(F)(F)F)ccc1C(=O)NCc1cnc(Cl)s1 (centres unmarked) [AC26] | A (50-100)
Cc1cc(/C=C/C(c2cc(Cl)c(Cl)c(Cl)c2)C(F)(F)F)ccc1C(=O)NC(C)(C)c1ccccn1 (centres unmarked) [AC27] | A (50-100)
O=C(NCc1ccc(Cl)nc1)c1ccc(/C=C/C(c2cc(Cl)c(Cl)c(Cl)c2)C(F)(F)F)cc1Cl (centres unmarked) [AC28] | A (50-100)
O=C(NC1CSC1)c1ccc(/C=C/C(c2cc(Cl)c(Cl)c(Cl)c2)C(F)(F)F)cc1Cl (centres unmarked) [AC29] | A (50-100)
O=C(NC1CS(=O)(=O)C1)c1ccc(/C=C/C(c2cc(Cl)c(Cl)c(Cl)c2)C(F)(F)F)cc1Cl (centres unmarked) [AC30] | A (50-100)
O=C(NCc1ccc(Cl)nc1)c1ccc(/C=C/C(c2cc(Cl)c(Cl)c(Cl)c2)C(F)(F)F)cc1Br (centres unmarked) [AC31] | A (50-100)
O=C(NC1CSC1)c1ccc(/C=C/C(c2cc(Cl)c(Cl)c(Cl)c2)C(F)(F)F)cc1Br (centres unmarked) [AC32] | A (50-100)
O=C(NC1CS(=O)(=O)C1)c1ccc(/C=C/C(c2cc(Cl)c(Cl)c(Cl)c2)C(F)(F)F)cc1Br (centres unmarked) [AC33] | A (50-100)
O=C(NC1CSC1)c1ccc(/C=C/C(c2cc(Cl)c(Cl)c(Cl)c2)C(F)(F)F)cc1C(F)(F)F (centres unmarked) [AC34] | A (50-100)

Compound | BAW Rating
O=C(NC1CS(=O)(=O)C1)c1ccc(/C=C/C(c2cc(Cl)c(Cl)c(Cl)c2)C(F)(F)F)cc1C(F)(F)F (centres unmarked) [AC35] | A (50-100)
O=C(NCc1ccc(Cl)nc1)c1ccc(/C=C/C(c2cc(Cl)c(Cl)c(Cl)c2)C(F)(F)F)cc1C(F)(F)F (centres unmarked) [AC36] | A (50-100)
Cc1cc(/C=C/C(c2ccc(Cl)c(Cl)c2)C(F)(F)F)ccc1C(=O)NCc1ccc(Cl)nc1 (centres unmarked) [AC37] | A (50-100)
Cc1cc(/C=C/C(c2cc(Cl)c(F)c(Cl)c2)C(F)(F)F)ccc1C(=O)NCc1ccc(Cl)nc1 (centres unmarked) [AC38] | A (50-100)
Cc1cc(/C=C/C(c2cc(Cl)cc(Cl)c2)C(F)(F)F)ccc1C(=O)NCc1cncnc1 (centres unmarked) [AC39, 4-((E)-3-(3,5-Dichlorophenyl)-4,4,4-trifluorobut-1-enyl)-2-methyl-N-((pyrimidin-5-yl)methyl)benzamide] | A (50-100)
Cc1cc(/C=C/C(c2cc(Cl)cc(Cl)c2)C(F)(F)F)ccc1C(=O)NCC(=O)NC1CC1 (centres unmarked) [AC40] | A (50-100)
Cc1cc(/C=C/C(c2cc(Cl)cc(Cl)c2)C(F)(F)F)ccc1C(=O)NCC(=O)NC1CSC1 (centres unmarked) [AC41] | A (50-100)
Cc1cc(/C=C/C(c2cc(Cl)cc(Cl)c2)C(F)(F)F)ccc1C(=O)NCc1nc2ccccc2s1 (centres unmarked) [AC42] | A (50-100)
Cc1cc(/C=C/C(c2cc(Cl)cc(Cl)c2)C(F)(F)F)ccc1C(=O)NCc1cnccn1 (centres unmarked) [AC43] | A (50-100)
Cc1cc(/C=C/C(c2cc(Cl)cc(Cl)c2)C(F)(F)F)ccc1C(=O)NN(C)c1ccccc1F (centres unmarked) [AC45] | A (50-100)
Cc1cc(/C=C/C(c2cc(Cl)cc(Cl)c2)C(F)(F)F)ccc1C(=O)NCc1ccc(Cl)cc1 (centres unmarked) [AC48] | A (50-100)
O=C(NCc1ccc(Cl)nc1)c1ccc(/C=C/C(c2cc(Cl)cc(Cl)c2)C(F)(F)F)cc1F (centres unmarked) [AC49] | A (50-100)
Cc1cc(/C=C/C(c2cc(Cl)cc(Cl)c2)C(F)(F)F)ccc1C(=O)NCc1nccn1C (centres unmarked) [AC50] | A (50-100)
Cc1cc(/C=C/C(c2cc(Cl)cc(Cl)c2)C(F)(F)F)ccc1C(=O)NCC(=O)N(C)CC(F)(F)F (centres unmarked) [AC51] | A (50-100)
Cc1cc(/C=C/C(c2cc(Cl)c(F)c(Cl)c2)C(F)(F)F)ccc1C(=O)NC1CCOCC1 (centres unmarked) [AC52] | A (50-100)
Cc1cc(/C=C/C(c2cc(Cl)c(F)c(Cl)c2)C(F)(F)F)ccc1C(=O)NCc1ccc(Cl)cn1 (centres unmarked) [AC53] | A (50-100)
Cc1cc(/C=C/C(c2cc(Cl)c(F)c(Cl)c2)C(F)(F)F)ccc1C(=O)NCc1ccnc(Cl)c1 (centres unmarked) [AC54] | A (50-100)
CC(C)(C)OC(=O)CNC(=O)c1ccc(/C=C/C(c2cc(Cl)c(Cl)c(Cl)c2)C(F)(F)F)cc1Br (centres unmarked) [AC58] | A (50-100)
Cc1cc(/C=C/C(c2cc(Cl)cc(Cl)c2)C(F)(F)F)ccc1C(=O)Nc1ccc(Cl)nc1 (centres unmarked) [AC59] | A (50-100)
O=C(NC1CSC1)c1ccc(/C=C/C(c2cc(Cl)cc(Cl)c2)C(F)(F)F)cc1F (centres unmarked) [AC61] | A (50-100)
O=C(CNC(=O)c1ccc(/C=C/C(c2cc(Cl)cc(Cl)c2)C(F)(F)F)cc1F)NCC(F)(F)F (centres unmarked) [AC62] | A (50-100)

Compound | BAW Rating
O=C(NCc1ccc(Cl)nc1)c1ccc(/C=C/C(c2cc(Cl)c(F)c(Cl)c2)C(F)(F)F)cc1Br (centres unmarked) [AC63] | A (50-100)
O=C(CNC(=O)c1ccc(/C=C/C(c2cc(Cl)c(Cl)c(Cl)c2)C(F)(F)F)cc1Cl)NCC(F)(F)F (centres unmarked) [AC64, (E)-2-Chloro-N-(2-oxo-2-((2,2,2-trifluoroethyl)amino)ethyl)-4-(4,4,4-trifluoro-3-(3,4,5-trichlorophenyl)but-1-en-1-yl)benzamide] | A (50-100)
O=C(NCc1ccc(Cl)nc1)c1ccc(/C=C/C(c2cc(Cl)c(F)c(Cl)c2)C(F)(F)F)cc1F (centres unmarked) [AC65] | A (50-100)
O=C(CNC(=O)c1ccc(/C=C/C(c2cc(Cl)c(Cl)c(Cl)c2)C(F)(F)F)cc1Br)NCC(F)(F)F (centres unmarked) [AC66] | A (50-100)
O=C(NC1CSC1)c1ccc(/C=C/C(c2cc(Cl)c(F)c(Cl)c2)C(F)(F)F)cc1F (centres unmarked) [AC67] | A (50-100)
O=C(CNC(=O)c1ccc(/C=C/C(c2cc(Cl)c(F)c(Cl)c2)C(F)(F)F)cc1F)NCC(F)(F)F (centres unmarked) [AC68] | A (50-100)
Cc1cc(/C=C/C(c2cc(Cl)c(F)c(Cl)c2)C(F)(F)F)ccc1C(=O)NCC(=O)NCC(F)(F)F (centres unmarked) [AC69] | A (50-100)
COc1cc(/C=C/C(c2cc(Cl)c(F)c(Cl)c2)C(F)(F)F)ccc1C(=O)NC1CSC1 (centres unmarked) [AC71] | A (50-100)
CCc1cc(/C=C/C(c2cc(Cl)c(F)c(Cl)c2)C(F)(F)F)ccc1C(=O)NCc1ccc(Cl)nc1 (centres unmarked) [AC72] | A (50-100)
O=C(NCc1ccc(C(F)(F)F)nc1)c1ccc(/C=C/C(c2cc(Cl)c(Cl)c(Cl)c2)C(F)(F)F)cc1Br (centres unmarked) [AC75] | A (50-100)
Cc1cc(/C=C/C(c2cc(Cl)c(F)c(Cl)c2)C(F)(F)F)ccc1C(=O)NCc1cc(Cl)ccn1 (centres unmarked) [AC77] | A (50-100)
Cc1cc(/C=C/C(c2cc(Cl)c(Cl)c(Cl)c2)C(F)(F)F)ccc1C(=O)NCC(=O)NCC(F)(F)F (centres unmarked) [AC78] | A (50-100)
O=C(CNC(=O)c1ccc(/C=C/C(c2cc(Cl)c(F)c(Cl)c2)C(F)(F)F)cc1Br)NCC(F)(F)F (centres unmarked) [AC79, (E)-2-Bromo-4-(3-(3,5-dichloro-4-fluorophenyl)-4,4,4-trifluorobut-1-en-1-yl)-N-(2-oxo-2-((2,2,2-trifluoroethyl)amino)ethyl)benzamide] | A (50-100)
CCc1cc(/C=C/C(c2cc(Cl)c(F)c(Cl)c2)C(F)(F)F)ccc1C(=O)NCC(=O)NCC(F)(F)F (centres unmarked) [AC80] | A (50-100)
Cc1cc(/C=C/C(c2cc(Cl)cc(Cl)c2)C(F)(F)F)ccc1C(=O)NCC(=O)NC1CS(=O)(=O)C1 (centres unmarked) [AC81] | A (50-100)
O=C(NC1CS(=O)(=O)C1)c1ccc(/C=C/C(c2cc(Cl)cc(Cl)c2)C(F)(F)F)cc1F (centres unmarked) [AC83, (E)-4-(3-(3,5-Dichlorophenyl)-4,4,4-trifluorobut-1-en-1-yl)-N-(1,1-dioxidothietan-3-yl)-2-fluorobenzamide] | A (50-100)
O=C(NC1CS(=O)(=O)C1)c1ccc(/C=C/C(c2cc(Cl)c(F)c(Cl)c2)C(F)(F)F)cc1F (centres unmarked) [AC84] | A (50-100)
COc1cc(/C=C/C(c2cc(Cl)c(F)c(Cl)c2)C(F)(F)F)ccc1C(=O)NC1CS(=O)(=O)C1 (centres unmarked) [AC85] | A (50-100)
CCc1cc(/C=C/C(c2cc(Cl)c(F)c(Cl)c2)C(F)(F)F)ccc1C(=O)NC1CS(=O)(=O)C1 (centres unmarked) [AC86] | A (50-100)
O=C(NC1C[S+]([O-])C1)c1ccc(/C=C/C(c2cc(Cl)c(F)c(Cl)c2)C(F)(F)F)cc1F (centres unmarked) [AC87] | A (50-100)
